The text below walks through data of ChEMBL document CHEMBL5230126, “Cyclic tailor-made amino acids in the design of modern pharmaceuticals” (Eur J Med Chem, 2020).

Some results are limits rather than exact numbers.

A word on the IC50: it is the point on the concentration scale where inhibition reaches its midpoint. What is called Ki is the equilibrium dissociation constant of an inhibitor or competing ligand from its target. For orientation: pKb means −log10 of the Kb, conventionally taken in molar units. Lower therefore signals a high Kb.

The nature of experiment [1]: Displacement of [125I]-Ang II from rat liver membrane AT1R incubated for 3 hrs. The experiment is classed as cell membranes. For orientation: In a radioligand displacement assay an active substance lowers the binding of a labelled ligand.
Experiment [2] can be described thus: Displacement of [125I]-Ang II from rabbit uterine membrane AT2R incubated for 3 hrs in presence of DuP 753. The experiment is classed as cell membranes, Oryctolagus cuniculus, Uterus.
For another experiment, the target named is T1, Orexin receptor type 2 (Homo sapiens, UniProt O43614).
T1 sequence (O43614 whole entry): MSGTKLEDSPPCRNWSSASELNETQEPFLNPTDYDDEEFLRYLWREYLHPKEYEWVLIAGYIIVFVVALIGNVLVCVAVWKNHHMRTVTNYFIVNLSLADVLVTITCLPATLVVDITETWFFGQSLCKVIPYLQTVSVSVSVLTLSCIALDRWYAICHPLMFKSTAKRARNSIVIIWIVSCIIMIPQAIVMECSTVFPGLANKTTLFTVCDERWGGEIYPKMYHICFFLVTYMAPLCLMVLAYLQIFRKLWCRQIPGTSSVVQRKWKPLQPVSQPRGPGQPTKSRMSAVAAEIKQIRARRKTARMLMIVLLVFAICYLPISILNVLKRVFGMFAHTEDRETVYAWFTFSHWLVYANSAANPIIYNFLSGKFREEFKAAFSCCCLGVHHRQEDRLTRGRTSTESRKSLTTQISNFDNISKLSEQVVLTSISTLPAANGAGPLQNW
Kind of experiment: Inhibition of human orexin 2.

Experiment [3] deals with T2, Orexin/Hypocretin receptor type 1 (Homo sapiens, UniProt O43613).
T2 sequence (O43613 whole entry): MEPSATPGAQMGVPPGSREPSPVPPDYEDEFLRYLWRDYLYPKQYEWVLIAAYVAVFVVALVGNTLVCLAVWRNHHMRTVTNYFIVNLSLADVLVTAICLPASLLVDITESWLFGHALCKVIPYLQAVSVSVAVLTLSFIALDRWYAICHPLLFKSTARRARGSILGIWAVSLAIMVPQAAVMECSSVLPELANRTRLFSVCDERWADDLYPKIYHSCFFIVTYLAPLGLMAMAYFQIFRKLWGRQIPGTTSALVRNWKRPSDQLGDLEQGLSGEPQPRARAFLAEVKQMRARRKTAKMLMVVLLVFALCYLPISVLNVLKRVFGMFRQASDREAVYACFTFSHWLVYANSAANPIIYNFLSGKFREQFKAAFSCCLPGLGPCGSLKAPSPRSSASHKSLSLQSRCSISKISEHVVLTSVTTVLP
Kind of experiment: Inhibition of human orexin 1.

For experiment [4], the target named is T3, Orexin/Hypocretin receptor type 1 (Homo sapiens) (UniProt O43613).
T3 sequence (whole entry): T2 sequence (O43613 whole entry)
Briefly: Antagonist activity at human OX1 receptor. As to conditions: filed as antagonist.

In the case of `Cc1cc(Cn2cnc3c2C[C@@H](C(=O)O)N(C(=O)C(c2ccccc2)c2ccccc2)C3)ccc1N(C)C`, the IC50 in experiment [1] is > 10000 nM; in experiment [2], 6.9 nM.

Regarding `COc1ccc2c(c1OCc1ccccc1)C[C@@H](C(=O)O)N(C(=O)C(c1ccccc1)c1ccccc1)C2` [OLODANRIGAN], the IC50 is > 10000 nM in experiment [1] and 0.58 nM in experiment [2].

Turning to `Cc1ccc(-c2ncccn2)c(C(=O)N2C[C@@H]3C[C@@H]3C[C@H]2CNc2nnc(C(F)(F)F)s2)n1`, the Ki at Orexin receptor type 2 is 1580 nM; in experiment [3], 79.4 nM.

For the molecule `Cc1ccc(-c2cnccn2)c(C(=O)N2CCC3(CC3)C[C@H]2CNc2cccc(C(F)(F)F)n2)c1`, in experiment [4], the pKb turned out to be 8.
